Experimental data: US9302999B2, “Substituted triazoles as herbicides” (E. I. DU PONT DE NEMOURS AND COMPANY, priority 2012, dated 2016)

Key:
Type in all cases: in vivo
[1] = system: morningglory (Ipomoea spp.); test: Test A pre-/postemergence: morningglory; conditions: for Morningglory plant response rating: visual rating on 0 to 100 scale (0 no effect, 100 complete control), approximately ten days
Procedure, shortened: (§1)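 Plants in loam–sand blend were treated with test chemicals in non-phytotoxic solvent with surfactant, either as preemergence directed soil spray or postemergence at 2–10 cm, one- to two-leaf stage. After about ten days in greenhouse, injury was rated visually against untreated controls on a 0–100 scale (100 = complete control).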

[2] = system: blackgrass (Alopecurus myosuroides); test: Test C pre-/postemergence: blackgrass
Procedure, shortened: (§2)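 Visual injury scored 0–100 (100 = complete control) against untreated controls after 13–15 greenhouse days. Surfactant-containing solvent formulations applied either to soil after sowing (loam/sand) or over 1- to 4-leaf plants, 2–18 cm tall.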

rice (Oryza sativa) = test: Test B flooded paddy: rice; conditions: Flood; 250 g ai/ha; applied to paddy water at 2-leaf stage; visually evaluated after 13 to 15 days
Procedure, shortened: (§3)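 Greenhouse assay lasting 13 to 15 days. Treatment was into water flooding pots 3 cm deep, at the 2-leaf stage, with that level sustained afterwards. Scores compare treated with control plants visually, 100 denoting complete control and 0 no effect; a dash marks no test result.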

[3] = system: lambsquarters (Chenopodium album); test: Test C pre-/postemergence: lambsquarters
Procedure, shortened: as §2

[4] = system: ragweed (common ragweed, Ambrosia elation); test: Test C pre-/postemergence: ragweed
Procedure, shortened: as §2

[5] = system: pigweed (Amaranthus retroflexus); test: Test A pre-/postemergence: pigweed; conditions: for Pigweed plant response rating: visual rating on 0 to 100 scale (0 no effect, 100 complete control), approximately ten days
Procedure, shortened: as §1

[6] = system: barnyardgrass (Echinochloa crus-galli); test: Test B flooded paddy: barnyardgrass; conditions: Flood; 250 g ai/ha; applied to paddy water at 2-leaf stage; visually evaluated after 13 to 15 days
Procedure, shortened: as §3

[7] = system: crabgrass, large (large crabgrass, Digitaria sanguinalis); test: Test A pre-/postemergence: crabgrass, large; conditions: for Crabgrass, Large plant response rating: Postemergence; for Plant response rating, Crabgrass, Large: Preemergence
Procedure, shortened: as §1

[8] = system: barnyardgrass (Echinochloa crus-galli); test: Test A pre-/postemergence: barnyardgrass; conditions: for Barnyardgrass plant response rating: Postemergence; for Plant response rating, Barnyardgrass: Preemergence
Procedure, shortened: as §1

soybean (Glycine max) = test: Test C pre-/postemergence: soybean
Procedure, shortened: as §2

[9] = Postemergence, 125 g ai/ha, 0 to 100 scale, 0 is no effect, 100 is complete control
[10] = Preemergence, 125 g ai/ha, 0 to 100 scale where 0 is no effect and 100 is complete control
[11] = Preemergence, 500 g ai/ha, 0 to 100 scale (0 no effect, 100 complete control)
[12] = Postemergence, 31 g ai/ha, scale 0 to 100 (0 no effect, 100 complete control)
[13] = Postemergence, 62 g ai/ha, scale 0 to 100 (0 no effect, 100 complete control)
[14] = Postemergence, 125 g ai/ha, scale 0 to 100, 0 no effect, 100 complete control
[15] = Postemergence, 250 g ai/ha, scale 0 to 100
[16] = Preemergence, 31 g ai/ha, scale of 0 to 100, 0 is no effect, 100 is complete control
[17] = Preemergence, 62 g ai/ha, scale of 0 to 100, 0 is no effect, 100 is complete control
[18] = Preemergence, 125 g ai/ha, scale 0 to 100, 0 no effect, 100 complete control
[19] = Preemergence, 250 g ai/ha, scale 0 to 100, 0 no effect, 100 complete control
[20] = 125 g ai/ha, 0 to 100 scale, 0 is no effect, 100 is complete control
[21] = 500 g ai/ha, visual rating on 0 to 100 scale (0 no effect, 100 complete control), approximately ten days
[22] = 125 g ai/ha, 0 to 100 scale where 0 is no effect and 100 is complete control
[23] = 500 g ai/ha, 0 to 100 scale (0 no effect, 100 complete control)

COc1nn(-c2cccc(F)c2)nc1Cc1ccnc(C(F)(F)F)c1 [Compound 139]
Plant response rating, Morningglory [1, 9]: 80
Morningglory plant response rating ([1]; Postemergence, 500 g ai/ha): 100
Plant response rating, Morningglory [1, 10]: 50
Plant response rating, Morningglory [1, 11]: 70
Plant response rating, Blackgrass [2, 12]: 35
Plant response rating, Blackgrass [2, 13]: 40
Plant response rating, Blackgrass [2, 14]: 70
Plant response rating, Blackgrass [2, 15]: 70
Plant response rating, Blackgrass [2, 16]: 45
Plant response rating, Blackgrass [2, 17]: 90
Plant response rating, Blackgrass [2, 18]: 90
Plant response rating, Blackgrass [2, 19]: 90
Plant response rating, Rice (0 to 100 scale, 0 is no effect, 100 is complete control) (rice (Oryza sativa)): 45
Plant response rating, Lambsquarters [3, 12]: 90
Plant response rating, Lambsquarters [3, 13]: 95
Plant response rating, Lambsquarters [3, 14]: 95
Plant response rating, Lambsquarters [3, 15]: 98
Plant response rating, Lambsquarters [3, 16]: 60
Plant response rating, Lambsquarters [3, 17]: 70
Plant response rating, Lambsquarters [3, 18]: 85
Plant response rating, Lambsquarters [3, 19]: 90
Plant response rating, Ragweed [4, 13]: 40
Plant response rating, Ragweed [4, 14]: 45
Plant response rating, Ragweed [4, 15]: 75
Plant response rating, Ragweed [4, 16]: 0
Plant response rating, Ragweed [4, 17]: 0
Plant response rating, Ragweed [4, 18]: 30
Plant response rating, Ragweed [4, 19]: 55
Plant response rating, Pigweed [5, 9]: 100
Pigweed plant response rating ([5]; Postemergence, 500 g ai/ha): 100
Plant response rating, Pigweed [5, 10]: 100
Plant response rating, Pigweed [5, 11]: 100
Plant response rating, Barnyardgrass (0 to 100 scale, 0 is no effect, 100 is complete control) [6]: 65
Crabgrass, Large plant response rating [7, 20]: 90
Crabgrass, Large plant response rating [7, 21]: 90
Plant response rating, Crabgrass, Large [7, 22]: 100
Plant response rating, Crabgrass, Large [7, 23]: 100
Barnyardgrass plant response rating [8, 20]: 90
Barnyardgrass plant response rating [8, 21]: 100
Plant response rating, Barnyardgrass [8, 22]: 80
Plant response rating, Barnyardgrass [8, 23]: 100
Plant response rating, Soybean (soybean (Glycine max); [12]): 40
Plant response rating, Soybean (soybean (Glycine max); [13]): 40
Plant response rating, Soybean (soybean (Glycine max); [14]): 45
Plant response rating, Soybean (soybean (Glycine max); [15]): 45
Plant response rating, Soybean (soybean (Glycine max); [16]): 5
Plant response rating, Soybean (soybean (Glycine max); [17]): 15
Plant response rating, Soybean (soybean (Glycine max); [18]): 25
Plant response rating, Soybean (soybean (Glycine max); [19]): 25

Cc1nn(-c2ccnc(Cl)c2)nc1Cc1ccnc(C(F)(F)F)c1 [Compound 141]
Plant response rating, Morningglory [1, 9]: 80
Morningglory plant response rating ([1]; Postemergence, 500 g ai/ha): 90
Plant response rating, Morningglory [1, 10]: 30
Plant response rating, Morningglory [1, 11]: 60
Plant response rating, Blackgrass [2, 12]: 20
Plant response rating, Blackgrass [2, 13]: 20
Plant response rating, Blackgrass [2, 14]: 35
Plant response rating, Blackgrass [2, 15]: 75
Plant response rating, Rice (0 to 100 scale, 0 is no effect, 100 is complete control) (rice (Oryza sativa)): 35
Plant response rating, Lambsquarters [3, 12]: 98
Plant response rating, Lambsquarters [3, 13]: 98
Plant response rating, Lambsquarters [3, 14]: 98
Plant response rating, Lambsquarters [3, 15]: 98
Plant response rating, Ragweed [4, 12]: 60
Plant response rating, Ragweed [4, 13]: 70
Plant response rating, Ragweed [4, 15]: 85
Plant response rating, Pigweed [5, 9]: 100
Pigweed plant response rating ([5]; Postemergence, 500 g ai/ha): 100
Plant response rating, Pigweed [5, 10]: 100
Plant response rating, Pigweed [5, 11]: 100
Plant response rating, Barnyardgrass (0 to 100 scale, 0 is no effect, 100 is complete control) [6]: 20
Crabgrass, Large plant response rating [7, 20]: 90
Crabgrass, Large plant response rating [7, 21]: 90
Plant response rating, Crabgrass, Large [7, 22]: 100
Plant response rating, Crabgrass, Large [7, 23]: 100
Barnyardgrass plant response rating [8, 20]: 80
Barnyardgrass plant response rating [8, 21]: 90
Plant response rating, Barnyardgrass [8, 22]: 40
Plant response rating, Barnyardgrass [8, 23]: 100
Plant response rating, Soybean (soybean (Glycine max); [12]): 40
Plant response rating, Soybean (soybean (Glycine max); [13]): 55
Plant response rating, Soybean (soybean (Glycine max); [14]): 55
Plant response rating, Soybean (soybean (Glycine max); [15]): 65

Cc1nn(-c2ccc(F)cc2F)nc1Oc1ccnc(C(F)(F)F)c1 [Compound 146]
Plant response rating, Morningglory [1, 9]: 90
Morningglory plant response rating ([1]; Postemergence, 500 g ai/ha): 90
Plant response rating, Morningglory [1, 10]: 10
Plant response rating, Morningglory [1, 11]: 60
Plant response rating, Blackgrass [2, 16]: 50
Plant response rating, Blackgrass [2, 17]: 70
Plant response rating, Blackgrass [2, 18]: 90
Plant response rating, Blackgrass [2, 19]: 90
Plant response rating, Rice (0 to 100 scale, 0 is no effect, 100 is complete control) (rice (Oryza sativa)): 35
Plant response rating, Lambsquarters [3, 16]: 10
Plant response rating, Lambsquarters [3, 17]: 40
Plant response rating, Lambsquarters [3, 18]: 85
Plant response rating, Lambsquarters [3, 19]: 95
Plant response rating, Ragweed [4, 16]: 0
Plant response rating, Ragweed [4, 17]: 0
Plant response rating, Ragweed [4, 18]: 45
Plant response rating, Ragweed [4, 19]: 45
Plant response rating, Pigweed [5, 9]: 100
Pigweed plant response rating ([5]; Postemergence, 500 g ai/ha): 100
Plant response rating, Pigweed [5, 10]: 100
Plant response rating, Pigweed [5, 11]: 100
Plant response rating, Barnyardgrass (0 to 100 scale, 0 is no effect, 100 is complete control) [6]: 50
Crabgrass, Large plant response rating [7, 20]: 80
Crabgrass, Large plant response rating [7, 21]: 90
Plant response rating, Crabgrass, Large [7, 22]: 100
Plant response rating, Crabgrass, Large [7, 23]: 100
Barnyardgrass plant response rating [8, 20]: 30
Barnyardgrass plant response rating [8, 21]: 90
Plant response rating, Barnyardgrass [8, 22]: 90
Plant response rating, Barnyardgrass [8, 23]: 100
Plant response rating, Soybean (soybean (Glycine max); [16]): 10
Plant response rating, Soybean (soybean (Glycine max); [17]): 15
Plant response rating, Soybean (soybean (Glycine max); [19]): 40

Cc1nn(-c2ccc(C(F)(F)F)c(F)c2)nc1Oc1ccnc(C(F)(F)F)c1 [Compound 148]
Plant response rating, Morningglory [1, 9]: 80
Morningglory plant response rating ([1]; Postemergence, 500 g ai/ha): 90
Plant response rating, Morningglory [1, 10]: 40
Plant response rating, Morningglory [1, 11]: 90
Plant response rating, Blackgrass [2, 12]: 40
Plant response rating, Blackgrass [2, 13]: 50
Plant response rating, Blackgrass [2, 14]: 70
Plant response rating, Blackgrass [2, 15]: 80
Plant response rating, Blackgrass [2, 16]: 60
Plant response rating, Blackgrass [2, 17]: 85
Plant response rating, Blackgrass [2, 18]: 90
Plant response rating, Blackgrass [2, 19]: 90
Plant response rating, Rice (0 to 100 scale, 0 is no effect, 100 is complete control) (rice (Oryza sativa)): 45
Plant response rating, Lambsquarters [3, 12]: 98
Plant response rating, Lambsquarters [3, 13]: 98
Plant response rating, Lambsquarters [3, 14]: 98
Plant response rating, Lambsquarters [3, 15]: 98
Plant response rating, Lambsquarters [3, 16]: 15
Plant response rating, Lambsquarters [3, 17]: 25
Plant response rating, Lambsquarters [3, 18]: 65
Plant response rating, Lambsquarters [3, 19]: 85
Plant response rating, Ragweed [4, 12]: 65
Plant response rating, Ragweed [4, 13]: 85
Plant response rating, Ragweed [4, 14]: 85
Plant response rating, Ragweed [4, 15]: 85
Plant response rating, Ragweed [4, 16]: 15
Plant response rating, Ragweed [4, 17]: 45
Plant response rating, Ragweed [4, 18]: 55
Plant response rating, Ragweed [4, 19]: 70
Plant response rating, Pigweed [5, 9]: 100
Pigweed plant response rating ([5]; Postemergence, 500 g ai/ha): 100
Plant response rating, Pigweed [5, 10]: 100
Plant response rating, Pigweed [5, 11]: 100
Plant response rating, Barnyardgrass (0 to 100 scale, 0 is no effect, 100 is complete control) [6]: 65
Crabgrass, Large plant response rating [7, 20]: 80
Crabgrass, Large plant response rating [7, 21]: 80
Plant response rating, Crabgrass, Large [7, 22]: 100
Plant response rating, Crabgrass, Large [7, 23]: 100
Barnyardgrass plant response rating [8, 20]: 80
Barnyardgrass plant response rating [8, 21]: 90
Plant response rating, Barnyardgrass [8, 22]: 90
Plant response rating, Barnyardgrass [8, 23]: 100
Plant response rating, Soybean (soybean (Glycine max); [12]): 45
Plant response rating, Soybean (soybean (Glycine max); [13]): 45
Plant response rating, Soybean (soybean (Glycine max); [14]): 80
Plant response rating, Soybean (soybean (Glycine max); [15]): 90
Plant response rating, Soybean (soybean (Glycine max); [16]): 5
Plant response rating, Soybean (soybean (Glycine max); [17]): 10
Plant response rating, Soybean (soybean (Glycine max); [18]): 20
Plant response rating, Soybean (soybean (Glycine max); [19]): 30
